In patent US8507488B2, “Fused nitrogen containing heterocycles and compositions thereof as kinase inhibitors” (IRM LLC, priority 2008, dated 2013):

Tests used:
Tel-TrkA = target: T1, Tel-TrkA (Homo sapiens, UniProt P04629); test: Inhibition of proliferation of Ba/F3 cells expressing Tel-TrkA (BaF3/Tel-TrkA, luciferase/Bright Glo readout); type: cell-based; conditions: read-out: Ba/F3 Tel-TrkA IC 50
T1 construct: dimerization domain of Tel (ETV6) transcription factor (fusion partner, human ETV6 P41212); expressed in transfected cells; host or cells: luciferase expressing Ba/F3 murine hematopoietic progenitor cells; the other entry of the earlier key: ETV6 (P41212, Transcription factor ETV6)
T1 sequence (P04629 510-796 limits assumed): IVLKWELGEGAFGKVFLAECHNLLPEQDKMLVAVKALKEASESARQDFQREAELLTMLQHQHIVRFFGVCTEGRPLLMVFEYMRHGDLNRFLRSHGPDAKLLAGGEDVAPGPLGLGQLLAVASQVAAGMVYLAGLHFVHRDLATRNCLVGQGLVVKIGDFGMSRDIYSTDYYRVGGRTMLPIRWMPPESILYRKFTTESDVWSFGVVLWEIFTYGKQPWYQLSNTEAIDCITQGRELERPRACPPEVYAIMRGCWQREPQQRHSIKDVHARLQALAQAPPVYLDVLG
Method: (§1) Test compounds were dissolved in DMSO (10 mM) and transferred into 1.4 mL flat bottom or V-shaped Matrix tubes carrying a unique 2D matrix chip by individual compound hubs. The numbers of these chips were distinctively linked to the individual compound identification numbers. The stock solutions were stored at −20° C. if not used immediately. For the test procedure the vials were defrosted and identified by a scanner whereby a working sheet is generated that guides the subsequent working steps.
(§2) Compound dilutions were made in 384 well plates. This format enabled the assay of maximally 28 individual test compounds at 12 concentrations (single points) including 2 reference compounds. The dilution protocol included the production of pre-dilution plates, master plates and assay plates: • Compound plates: 30 μL of individual compound (10 mM) DMSO solution including standard compound were transferred into columns 1 and 13 of a 384 well plate. 20 μL of DMSO were added to the rest of the wells and the compounds were serially diluted (1:3) by transferring 10 μL from a well in column 1 or 13 to the next well in column 2 or 14 respectively and successively with the help of a Minitrack robot. • Assay plates: Identical assay plates were then prepared by adding […] each of compound dilutions of the compound plates into 384-well “assay plates”. In the following the compounds were mixed with 50 μL of assays components (cells or enzyme) and tested for their inhibitory activity.
(§3) Compounds of Formula (I) were tested for their antiproliferative effect on Ba/F3 cells expressing either Tel-TrkA, Tel-TrkB or Tel-TrkC and an additional panel of 34 selected diverse kinases activated by fusion to the dimerizing partners Bcr or Tel (Abl, A1K, BMX, EphA3, EphB2, FGFR2, FGFR3, FGFR4, FGR, FLT1, FLT3, FLT4, FMS, IGF1R, InsR, JAK1, JAK2, JAK3, KDR, Kit, Lck, Lyn, MER, MET, PDGFRb, RET, RON, Ros-1, Src, Aurora, TIE2, TYK2, Tie1, ZAP70). The antiproliferative effect of these compounds on the different cell lines and on the non transformed cells were tested at 12 different concentrations of 3-fold serially diluted compounds in 384 well plates as described above (in media lacking IL3). The IC50 values of the compounds the different cell lines were determined from dose response curves.
(§4) The cell line used is the luciferase expressing Ba/F3 murine hematopoietic progenitor cell line transformed with human Tel-TrkA, Tel-TrkB or Tel-TrkC cDNAs (Ba/F3 EN A/B/C). These cells maintained in RPMI/10% fetal bovine serum (RPMI/FCS) supplemented with penicillin 50 mg/mL, streptomycin 50 mg/mL and L-glutamine […]. Untransformed Ba/F3 cells were similarly maintained with the addition 5 ng/ml of murine recombinant IL3. 50 μl of a Ba/F3 or Ba/F3 EN A/B/C cell suspension were plated in Greiner 384 well microplates (white)) at a density of 2000 cells per well. […] The cells were incubated for 48 hours at 37° C., 5% CO2. 25 μl of Bright Glo® (Promega) luciferase substrate is added to each well. The emited luminiscence is quantified using the ACQUEST™ luminescence system (Molecular Devices). IC50 values were calculated by linear regression analysis of the percentage inhibition of each compound at 12 concentrations.

Tel-TrkB = target: T2, Tel-TrkB (Homo sapiens, UniProt Q16620); test: Inhibition of proliferation of Ba/F3 cells expressing Tel-TrkB (BaF3/Tel-TrkB); type: cell-based; conditions: Ba/F3 Tel-TrkB cells; read-out: Ba/F3 Tel-TrkB IC 50
T2 construct: dimerization domain of Tel (ETV6) transcription factor (fusion partner, human ETV6 P41212); expressed in transfected cells; host or cells: luciferase expressing Ba/F3 murine hematopoietic progenitor cells; the other entry of the earlier key: ETV6 (P41212, Transcription factor ETV6)
T2 sequence (Q16620 538-822 limits assumed): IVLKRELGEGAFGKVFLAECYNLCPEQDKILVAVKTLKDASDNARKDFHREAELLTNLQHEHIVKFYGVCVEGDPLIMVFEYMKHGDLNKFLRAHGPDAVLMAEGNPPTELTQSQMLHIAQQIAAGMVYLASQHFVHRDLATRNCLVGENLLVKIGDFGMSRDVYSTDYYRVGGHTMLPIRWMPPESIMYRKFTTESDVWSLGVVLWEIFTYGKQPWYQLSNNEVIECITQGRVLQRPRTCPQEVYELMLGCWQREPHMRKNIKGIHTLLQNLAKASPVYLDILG
Method: as §1, §2, §3, §4

Tel-TrkC = target: T3, Tel-TrkC (Homo sapiens, UniProt Q16288); test: Inhibition of proliferation of Ba/F3 cells expressing Tel-TrkC (BaF3/Tel-TrkC); type: cell-based; conditions: read-out: Ba/F3 Tel-TrkC IC 50
T3 construct: The cells also express luciferase as the viability read-out; it is not fused to the kinase; P41212 (Transcription factor ETV6)
T3 sequence (Q16288 whole entry, the tested form may be a part): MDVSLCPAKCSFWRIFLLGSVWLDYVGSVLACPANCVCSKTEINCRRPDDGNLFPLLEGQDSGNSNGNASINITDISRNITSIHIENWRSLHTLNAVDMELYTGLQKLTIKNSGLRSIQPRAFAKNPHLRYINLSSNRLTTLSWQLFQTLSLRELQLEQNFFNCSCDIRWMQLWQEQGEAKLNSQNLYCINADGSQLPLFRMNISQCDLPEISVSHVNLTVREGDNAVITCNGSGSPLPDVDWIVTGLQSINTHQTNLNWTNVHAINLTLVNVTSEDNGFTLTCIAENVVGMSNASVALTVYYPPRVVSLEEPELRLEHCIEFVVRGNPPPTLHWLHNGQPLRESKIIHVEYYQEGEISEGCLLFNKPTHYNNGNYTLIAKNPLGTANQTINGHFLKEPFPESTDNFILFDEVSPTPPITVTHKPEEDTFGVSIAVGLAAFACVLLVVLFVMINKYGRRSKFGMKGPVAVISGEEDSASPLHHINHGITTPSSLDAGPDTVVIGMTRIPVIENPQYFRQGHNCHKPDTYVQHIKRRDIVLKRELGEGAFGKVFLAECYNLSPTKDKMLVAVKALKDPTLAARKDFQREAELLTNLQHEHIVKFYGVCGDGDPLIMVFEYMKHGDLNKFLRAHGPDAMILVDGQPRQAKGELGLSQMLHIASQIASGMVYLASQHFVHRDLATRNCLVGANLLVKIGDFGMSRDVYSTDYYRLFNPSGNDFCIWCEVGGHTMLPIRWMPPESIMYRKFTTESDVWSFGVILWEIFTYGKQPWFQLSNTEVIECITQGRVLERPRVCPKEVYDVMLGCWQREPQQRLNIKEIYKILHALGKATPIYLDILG
Method: as §1, §2, §3
(§5) The cell line used is the luciferase expressing Ba/F3 murine hematopoietic progenitor cell line transformed with human Tel-TrkA, Tel-TrkB or Tel-TrkC cDNAs (Ba/F3 EN A/B/C). These cells maintained in RPMI/10% fetal bovine serum (RPMI/FCS) supplemented with penicillin 50 mg/mL, streptomycin 50 mg/mL and L-glutamine […]. Untransformed Ba/F3 cells were similarly maintained with the addition 5 ng/ml of murine recombinant IL3. 50 μl of a Ba/F3 or Ba/F3 EN A/B/C cell suspension were plated in Greiner 384 well microplates (white)) at a density of 2000 cells per well. 50 nl of serially diluted test compound (10-0.0001 mM in DMSO solution) is added to each well. The cells were incubated for 48 hours at 37° C., 5% CO2. 25 μl of Bright Glo® (Promega) luciferase substrate is added to each well. The emited luminiscence is quantified using the ACQUEST™ luminescence system (Molecular Devices). IC50 values were calculated by linear regression analysis of the percentage inhibition of each compound at 12 concentrations.

[1] = target: T4, full length rTrkA and mNGF (Rattus norvegicus, UniProt P35739); test: Inhibition of proliferation of Ba/F3 cells co-expressing full length rTrkA and mNGF (BaF3/TrkA-NFG); type: cell-based; conditions: BaF3 TRKA-NGF cells, CTG readout
T4 construct: co-expressing full length rTrkA and mNGF; expressed in transfected cells; host or cells: Ba/F3 cells
T4 sequence (P35739 33-799): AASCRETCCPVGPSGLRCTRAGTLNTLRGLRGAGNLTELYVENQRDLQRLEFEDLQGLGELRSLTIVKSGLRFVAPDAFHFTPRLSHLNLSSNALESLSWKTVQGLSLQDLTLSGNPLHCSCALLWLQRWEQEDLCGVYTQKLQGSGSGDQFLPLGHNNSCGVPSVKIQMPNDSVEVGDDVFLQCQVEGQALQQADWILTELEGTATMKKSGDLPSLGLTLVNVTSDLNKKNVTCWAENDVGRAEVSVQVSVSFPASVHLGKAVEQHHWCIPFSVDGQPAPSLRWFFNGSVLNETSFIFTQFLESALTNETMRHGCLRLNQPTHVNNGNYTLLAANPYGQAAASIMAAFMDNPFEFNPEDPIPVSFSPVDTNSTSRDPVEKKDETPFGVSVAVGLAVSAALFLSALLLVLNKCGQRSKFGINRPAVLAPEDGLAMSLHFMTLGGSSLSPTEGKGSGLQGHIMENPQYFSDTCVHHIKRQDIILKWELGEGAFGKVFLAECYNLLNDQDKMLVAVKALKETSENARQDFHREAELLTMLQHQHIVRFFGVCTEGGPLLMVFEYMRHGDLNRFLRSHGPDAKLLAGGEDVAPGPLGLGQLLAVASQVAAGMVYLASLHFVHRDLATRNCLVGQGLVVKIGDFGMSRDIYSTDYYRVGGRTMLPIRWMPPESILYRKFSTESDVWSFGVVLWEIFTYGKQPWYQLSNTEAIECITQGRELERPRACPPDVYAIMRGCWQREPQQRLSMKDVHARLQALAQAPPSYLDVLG
T4 sequence (P01139 122-241 partner): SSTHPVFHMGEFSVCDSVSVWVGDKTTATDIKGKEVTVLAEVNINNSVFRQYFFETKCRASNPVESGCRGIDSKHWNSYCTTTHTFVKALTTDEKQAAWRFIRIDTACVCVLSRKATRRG

parental BaF3 cells = test: Proliferation of parental (untransformed) Ba/F3 cells maintained with IL3; type: cell-based, murine; conditions: Mus musculus, BaF3, parental Ba/F3 cells; read-out: Ba/F3 IC 50
Method: as §1, §2, §5

KM12 luc = KM12 luc cell proliferation assay (Table 8); type: cell-based; conditions: KM12 luc cells; read-out: KM12 luc IC 50

Row | SMILES | IC50 (Tel-TrkA) | IC50 (Tel-TrkB) | IC50 (Tel-TrkC) | BaF3 TRKA-NGF CTG IC 50 [1] | IC50 (parental BaF3 cells) | IC50 (KM12 luc)
1 | CC1(c2cccc(F)c2)CCCN1c1ccc2ncc(-c3ccc(C#N)cc3)n2n1 (stereo not shown) [Table 3-Compound 91] | 298 nM | 129 nM | 33 nM | 720 nM | 8410 nM | 84 nM
2 | N#Cc1cccc(-n2cnc3ccc(N4C(=O)CSC4c4cc(F)ccc4F)nc32)c1 (stereo not shown) [Table 1-Compound 5] | 5670 nM | 4170 nM | 2610 nM | 3580 nM | > 10000 nM | 2290 nM
3 | C[C@H]1CN(c2ccc3ncc(-c4cccc(C#N)c4)n3n2)[C@H](c2ccccc2)C1(F)F [Table 3-Compound 52] | 12 nM | 7.7 nM | 4 nM | 22 nM | > 10000 nM | 6.5 nM
4 | Fc1cccc(C2CCCN2c2ccc3ncc(-c4csc(N5CCCCC5)n4)n3n2)c1 (stereo not shown) [Table 3-Compound 6] | 360 nM | 760 nM | 180 nM | 540 nM | > 10000 nM | 380 nM
5 | N#Cc1cccc(-c2cnc3ccc(N4CCC(=O)N4c4cccc(F)c4)nn23)c1 [Table 3-Compound 34] | 1200 nM | 400 nM | 130 nM | 500 nM | > 10000 nM | 10 nM
6 | N#Cc1cccc(-n2cnc3ccc(N4CCCC4c4cccc(F)c4)nc32)c1 (stereo not shown) [Table 1-Compound 1] | 210 nM | 150 nM | 69 nM | 680 nM | 16000 nM | 230 nM
7 | N#Cc1cc(-c2cnc3ccc(N4CCCC4c4cc(F)ccc4F)nn23)ccc1F (stereo not shown) [Table 5-Compound 1] | 51 nM | 38 nM | 21 nM | 43 nM | 7660 nM | 9.2 nM
8 | O=C(c1cccc(-c2cnc3ccc(N4CCCC4c4cccc(F)c4)nn23)n1)N1CCC(O)CC1 (stereo not shown) [Table 7-Compound 158] | 65 nM | 52 nM |  | 87 nM | > 11000 nM | 19 nM
9 | O=C1CN(c2cccc(-c3cnc4ccc(N5CCCC5c5cccc(F)c5)nn34)n2)CCN1 (stereo not shown) [Table 4-Compound 5] | 0.7 nM | 0.4 nM |  | 2.2 nM | > 10000 nM | 1.2 nM
10 | OCc1cccc(-c2cnc3ccc(N4CCCC4c4cccc(F)c4)nn23)n1 (stereo not shown) [Table 7-Compound 2] | 18 nM | 13 nM |  | 31 nM | > 10000 nM | 26 nM
11 | N#Cc1cccc(-n2cnc3ccc(N4CCSC4c4cc(F)ccc4F)nc32)c1 (stereo not shown) [Table 1-Compound 3] | 28 nM | 22 nM | 18 nM | 450 nM | > 10000 nM | 37 nM
12 | Fc1cccc(C2CCCCN2c2ccc3ncc(-c4ccc(N5CCOCC5)nc4)n3n2)c1 (stereo not shown) [Table 3-Compound 58] | 44 nM | 49 nM | 14 nM | 108 nM | 7650 nM | 34 nM
13 | CC(F)C(=O)N(C)C1CCN(c2cccc(-c3cnc4ccc(N5CCCC5c5cccc(F)c5)nn34)n2)C1 (stereo not shown) [Table 7-Compound 201] | 13 nM | 15 nM |  | 20 nM | > 11000 nM | 10 nM
14 | O=C(O)C1CN(c2cccc(-c3cnc4ccc(N5CCCC5c5cccc(F)c5)nn34)n2)C1 (stereo not shown) [Table 7-Compound 116] | 3 nM | 3 nM |  | 8 nM | > 9100 nM | 3 nM
15 | Cc1cnc(-c2cccc(-c3cnc4ccc(N5CCCC5c5cccc(F)c5)nn34)n2)[nH]1 (stereo not shown) [Table 7-Compound 3] | 6.9 nM | 6.6 nM |  | 19 nM | 3870 nM | 17 nM
16 | Fc1cccc(C2COCCN2c2ccc3ncc(-c4cccc(N5CC6CC5CN6)n4)n3n2)c1 (stereo not shown) [Table 7-Compound 9] | 59 nM | 63 nM |  | 53 nM | > 10000 nM | 14 nM
17 | OCC(O)CNc1cccc(-c2cnc3ccc(N4CCCC4c4cccc(F)c4)nn23)n1 (stereo not shown) [Table 4-Compound 16] | 6.8 nM | 1.5 nM |  | 5.2 nM | > 10000 nM | 2.2 nM
18 | CC(=O)N[C@@H]1CCN(c2cccc(-c3cnc4ccc(N5CCCC5c5cccc(F)c5)nn34)n2)C1 (stereo partly shown) [Table 7-Compound 119] | 3 nM | 3 nM |  | 4 nM | > 11000 nM | 2 nM
19 | OC1CCN(c2cccc(-c3cnc4ccc(N5CCOCC5c5cccc(F)c5)nn34)n2)CC1 (stereo not shown) [Table 7-Compound 1] | 17 nM | 17 nM |  | 30 nM | > 10000 nM | 7.6 nM
20 | O=C(NCCO)C1CCN(c2cccc(-c3cnc4ccc(N5CCOCC5c5cccc(F)c5)nn34)n2)CC1 (stereo not shown) [Table 7-Compound 12] | 6.1 nM | 6.7 nM |  | 8.1 nM | > 10000 nM | 1.2 nM
21 | CCN(CC)CCNc1cccc(-c2cnc3ccc(N4CCCC4c4cccc(F)c4)nn23)n1 (stereo not shown) [Table 4-Compound 14] | 21 nM | 14.9 nM |  | 45.2 nM | 5720 nM | 30.8 nM
22 | CN(C)C(=O)CN1CCN(c2ccc(-c3cnc4ccc(N5CCOCC5c5cccc(F)c5)nn34)cc2C#N)CC1 (stereo not shown) [Table 2-Compound 8] | 1.6 nM | 2.2 nM |  | 29 nM | > 10000 nM | 5.2 nM
23 | N#Cc1cc(-c2cnc3ccc(N4CCOCC4c4cccc(F)c4)nn23)ccc1N1CCC(O)CC1 (stereo not shown) [Table 2-Compound 7] | 83 nM | 230 nM |  | 550 nM | > 10000 nM | 140 nM
